Laboratory results taken from the NIST ThermoML archive (doi:10.1016/j.fluid.2011.01.007).

Key:
[1] = 298.15 K; 101.33 kPa; Liquid; Vibrating tube method
[2] = refractive index (Na D-line) (dimensionless); conditions: 298.15 K; 101.33 kPa; Liquid; Standard Abbe refractometry
[3] = xn = mol fraction of the nth substance listed; conditions: 298.15 K, 101 kPa, Liquid, Vibrating tube method
[4] = refractive index (Na D-line) (dimensionless); xn = mol fraction of the nth substance listed; conditions: 298.15 K, 101 kPa, Liquid, Standard Abbe refractometry

c1ccccc1 [benzene]
Conditions	mass density [kg/m3]	refractive index
[1]	873.57	–
[2]	–	1.49764

COC(=O)OC [dimethyl carbonate]
Conditions	mass density [kg/m3]	refractive index
[1]	1063.04	–
[2]	–	1.36654

COC(=O)OC [dimethyl carbonate] + Cc1ccccc1
Conditions	mass density, [3] [kg/m3]	refractive index, [4]
x1 = 0.0496	869.6	1.4883
x1 = 0.0998	877.39	1.4827
x1 = 0.2001	893.69	1.4715
x1 = 0.3003	910.85	1.4597
x1 = 0.3998	928.88	1.4475
x1 = 0.5002	948	1.4352
x1 = 0.5999	968.16	1.4224
x1 = 0.6999	989.62	1.4091
x1 = 0.7998	1012.35	1.3954
x1 = 0.8988	1036.61	1.3814
x1 = 0.9487	1049.29	1.3741

COC(=O)OC [dimethyl carbonate] + c1ccccc1
Conditions	mass density, [3] [kg/m3]	refractive index, [4]
x1 = 0.0518	882.09	1.4902
x1 = 0.0988	889.99	1.4836
x1 = 0.1995	907.42	1.4699
x1 = 0.2994	925.15	1.4565
x1 = 0.401	943.6	1.4431
x1 = 0.5002	962.07	1.4301
x1 = 0.6003	981.15	1.417
x1 = 0.699	1000.51	1.4044
x1 = 0.7981	1020.48	1.3918
x1 = 0.9	1041.49	1.3789
x1 = 0.9497	1052	1.3727

CCO [ethanol]
Conditions	mass density [kg/m3]	refractive index
[1]	785.33	–
[2]	–	1.35928

Cc1ccccc1 [toluene]
Conditions	mass density [kg/m3]	refractive index
[1]	862.19	–
[2]	–	1.49397
